Patent US5245035A, “Heterocyclic boron compounds as intermediates for angiotensin II antagonists” (Imperial Chemical Industries PLC, priority 1991, dated 1993)
Structures can show the parent of a compound that is named as a salt.

Columns and labels:
[1] = molecular target: T1, AII-induced contractions of isolated rabbit aorta (Oryctolagus cuniculus, UniProt P34976); assay: Test B: in vitro antagonism of AII-induced contractions of isolated rabbit aorta; format: cell-based; details: 37° C., read-out: average pA2 (converted)
T1 construct: isolated rabbit aorta, maintained in a physiological salt solution; from tissue; host or cells: isolated rabbit aorta
T1 sequence (P34976 1-359): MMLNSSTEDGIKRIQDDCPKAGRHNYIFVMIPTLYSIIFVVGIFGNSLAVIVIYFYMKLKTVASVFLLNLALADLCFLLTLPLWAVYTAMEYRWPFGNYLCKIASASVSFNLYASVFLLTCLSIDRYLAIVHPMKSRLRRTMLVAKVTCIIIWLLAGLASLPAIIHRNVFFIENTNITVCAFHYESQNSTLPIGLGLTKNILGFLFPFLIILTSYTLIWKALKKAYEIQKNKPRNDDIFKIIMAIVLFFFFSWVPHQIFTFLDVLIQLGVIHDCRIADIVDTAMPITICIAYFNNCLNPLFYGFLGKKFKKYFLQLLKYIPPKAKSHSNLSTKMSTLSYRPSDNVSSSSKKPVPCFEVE
Method: The antagonism of one or more of the physiological actions of AII and, in particular, the antagonism of the interaction of AII with the receptors which mediate its effects on a target tissue, may be assessed using one or more of the following, routine laboratory procedures: This in vitro test involves the measurement of the antagonistic effects of the test compound against […] contractions of isolated rabbit aorta, maintained in a physiological salt solution at 37° C. In order to ensure that the effect of the compound is specific to antagonism of AII, the effect of the test compound on noradrenaline-induced contractions may also be determined in the same preparation.

[2] = test system: angiotensin II-induced pressor responses; assay: Test C: in vivo antagonism of angiotensin II-induced pressor responses in terminally-anaesthetised or conscious rats; details: Rattus norvegicus, iv, i.v. administration
Excerpt: The antagonism of one or more of the physiological actions of AII and, in particular, the antagonism of the interaction of AII with the receptors which mediate its effects on a target tissue, may be assessed using one or more of the following, routine laboratory procedures: This in vivo test involves using terminally-anaesthetised or conscious rats in which an arterial catheter has been implanted under anaesthesia for the measurement of changes in blood pressure. The AII antagonistic effects of the test compound following oral or parenteral administration, are assessed against angiotensin II-induced pressor responses. To ensure that the effect is specific, the effect of the test compound on vasopressin-induced pressor responses may also be determined in the same preparation.

Row | SMILES | Kb [1] [nM] | ED50 [2] [mg/kg]
1 | Cc1cc(OCc2ccc(-c3ccccc3-c3nnn[nH]3)cc2)c2ccccc2n1.Cl [2-methyl-4-[(2'-(1H-tetrazol-5-yl)biphenyl-4-yl)methoxy]quinoline hydrochloride] | 1.12 | 0.5
2 | Cc1cc(OCc2ccc(-c3ccccc3-c3nnn[nH]3)cc2)c2c(n1)CCCC2 [2-methyl-5,6,7,8-tetrahydro-4-[(2'-(1H-tetrazol-5-yl)methoxy]quinoline hydrochloride] | – | 0.28
